Measured values: paper PMC12344696, “Elucidation of the Synergistic Interaction Between Bilirubin and Casein Protein: An Integrated Spectroscopy and Computational Approach” (Biomacromolecules, 2025)

Biological target: T1, casein (CAS) protein; CAS micelles
T1 construct: gene CSN1S1; whole casein mixture (alpha, beta, kappa), self-assembled micelles above CMC
Test: UV-vis absorption titration of BIL with casein, Hill1 fit
Details: phosphate buffer pH 7.3, 298 K; casein mixture 0.05-3 mg/mL across the CMC; converted from a mg/mL fit with average casein mass 22,500 Da; read-out: binding constant (converted)

**Q.** For C=CC1=C(C)/C(=C/c2[nH]c(Cc3[nH]c(/C=C4\NC(=O)C(C)=C4C=C)c(C)c3CCC(=O)O)c(CCC(=O)O)c2C)NC1=O [BIL, bilirubin], which Kd is on record?
**A.** 33.3 µM
